These are literature values, as cited in Sander's compilation of Henry's law constants (doi:10.1016/j.chemosphere.2007.04.088).

The nature of this data set: Henry solubility constant Hcp at 298.15 K (mol/(m3 Pa)). As to conditions: reference: Warneck (2007); cited value.
`ClC(Cl)=C(Cl)Cl` [tetrachloroethene]: the “Henry solubility constant Hcp” value was 0.00062.
For `ClC(Cl)(Cl)Cl` [tetrachloromethane], the “Henry solubility constant Hcp” value is 0.00036.
Take `C=CCl` [chloroethene]: the “Henry solubility constant Hcp” value was 0.00038.
Turning to `CCCl` [chloroethane], the “Henry solubility constant Hcp” value was 0.00083.
As to `ClCC(Cl)Cl` [1,1,2-trichloroethane], the “Henry solubility constant Hcp” value was 0.011.
Take `ClC=C(Cl)Cl` [trichloroethene]: the “Henry solubility constant Hcp” value was 0.0011.
Regarding `ClC(Cl)C(Cl)Cl` [1,1,2,2-tetrachloroethane], the “Henry solubility constant Hcp” value is 0.024.
As for `C=C(Cl)Cl` [1,1-dichloroethene], the “Henry solubility constant Hcp” value is 0.00037.
For the compound `CC(Cl)(Cl)Cl` [1,1,1-trichloroethane], the “Henry solubility constant Hcp” value is 0.0006.
For `ClCCl` [dichloromethane], the “Henry solubility constant Hcp” value is 0.0039.
As to `ClCC(Cl)(Cl)Cl` [1,1,1,2-tetrachloroethane], the “Henry solubility constant Hcp” value is 0.0042.
